Counter-ions that a name gives are not always drawn. Residues, ends and D or L forms follow the SMILES beside them. No end group written: not given here.
Columns and labels:
[1] = tested on: B16 melanoma cancer cells; test: B16 melanoma model in mice (tumor weight); type: in vivo; conditions: B16 melanoma cells (10^6) s.c. in mice; 1 mg peptide s.c. on day 7; tumours weighed on day 12
Method: FIG. 3 Prevention of cancer growth by cyclic GLQGE (SEQ ID NO: 5) in form of hydrochloride salt (cyclic GLQGE HCl salt). B16 melanoma cancer cells were injected subcutaneously in mice. On day 7, injection with 1 mg of the peptide or 0.9% NaCl subcutaneously was performed. On day 12 mice were euthanized and tumors removed and weighed. N=11/11 mice. Data presented as mean+SEM.
The cyclic peptide Gly-Leu-Gln-Gly-Glu (cyclic GLQGE; SEQ ID NO: 5) in form of hydrochloride salt was tested for its ability in prevention of cancer growth in a melanoma model in mice. B16 melanoma cancer cells (10^6 cells) were injected subcutaneously in mice. On day 7, injection with 1 mg of the cyclic GLQGE peptide (SEQ ID NO: 5) or 0.9% NaCl (control mice) subcutaneously was performed. On day 12 mice were euthanized and tumours removed and weighed. N=11/11 mice. Results are shown on FIG. 3 as mean+SEM. […] Thus, the cyclic peptide Gly-Leu-Gin-Gly-Glu (SEQ ID NO: 5) represents a promising therapeutic drug for use in the treatment of cancer.

[2] = tested on: breast cancer cell line MDA-MB-231; test: breast cancer model in mice, MDA-MB-231 intratibial (bioluminescence imaging); type: in vivo; conditions: MDA-MB-231 intratibially in CD1 nude mice; 0.1 mg s.c. daily from day 30 for 10 days; read on day 40; vs 0.9% NaCl
Method: FIG. 5 Prevention of breast cancer growth by cyclic GLQGE (SEQ ID NO: 5) in form of hydrochloride salt (cyclic GLQGE HCl salt). Cells from the breast cancer cell line MDA-MB-231 were injected intratibially in mice. Starting on day 30, injection with 0.1 mg/mouse/day of the cyclic peptide Gly-Leu-Gln-Gly-Glu (SEQ ID NO: 5) (cyclic GLQGE HCl salt) for 10 days or 0.9% NaCl subcutaneously was performed. On day 40, the size of the tumour was evaluated by bioluminescence imaging (Bioluminescence imaging was performed by detecting photon signal 5 minutes after D-luciferin injection (150 mg/kg) using an “IVIS Lumina II” imaging system. The resulting images were analysed using the software “Living Image”). RLU=relative light units. The number of animals in each group was N=14/7 mice, in two experiments. * p<0.05 as evaluated by t-test. Data are presented as mean+SEM.
The hydrochloride salt of cyclic peptide Gly-Leu-Gln-Gly-Glu (cyclic GLQGE; SEQ ID NO: 5) was tested for its ability in prevention of breast cancer in mice. […] On day 40, the size of the tumor was evaluated by bioluminescence imaging (Bioluminescence imaging was performed by detecting photon signal 5 minutes after D-luciferin injection (150 mg/kg) using an “IVIS Lumina II” imaging system. The resulting images were analyzed using the software “Living Image”). […]

[3] = tested on: bleomycin induced lung fibrosis in C57bl/6 mice; test: bleomycin induced lung fibrosis in mice (total collagen in the lung); type: in vivo; conditions: intratracheal bleomycin on day 0; 1 mg/mouse/day s.c. from day 11 for 10 days; vs bleomycin alone (p<0.05) or with control peptides
Method: FIG. 4 Prevention of fibrosis progression by the cyclic peptide Gly-Leu-Gln-Gly-Glu (SEQ ID NO: 5) (acetate salt). Lung fibrosis was induced in 6-week-old male C57bl/6 mice using intratracheal bleomycin instillation at a dose of 0.005 units in 50 μl on day 0. Starting on day 11, cyclic Gly-Leu-Gln-Gly-Glu (cyclic GLQGE; SEQ ID NO: 5) was injected subcutaneously at a dose of 1 mg/mouse/day in 0.9% NaCl for a total of 10 days. The control group only received daily injections of 0.9% NaCl. The number of animals in the four groups was N=14/10/10/9 in three experiments. The cyclic peptide Gly-Leu-Gln-Gly-Glu (Cyclic GLQGE; SEQ ID NO: 5) (acetate salt) was tested and compared to cyclic Ac-Gly-Leu-Asn-Gly-Glu (Cyclic GLNGE; SEQ ID NO: 10) (acetate salt) and to cyclic Ac-Gly-Leu-Hyp-Gly-Glu (Cyclic GLOGE; SEQ ID NO: 15) (acetate salt), *p<0.05. Evaluated by t-test. Data are presented as mean ±SEM.
The cyclic peptide Gly-Leu-Gln-Gly-Glu (cyclic GLQGE (SEQ ID NO: 5) acetate salt) was tested for its ability in prevention of lung fibrosis in mice. Lung fibrosis was induced in 6-week-old male C57bl/6 mice using intratracheal bleomycin instillation at a dose of 0.005 units in 50 μl 0.9% NaCl on day 0. […]

[4] = tested on: CCl4 induced liver fibrosis in mice; test: CCl4 induced liver fibrosis in mice (collagen accumulation in the liver); type: in vivo; conditions: for collagen accumulation in the liver (marker of matrix accumulation): mice, CCl4 for 6 weeks, peptide 25 mg/kg/mouse/day intraperitoneal in NaCl 0.9% from day 32 for 10 days, vs CCl4-treated mice, FIG. 1 and 2
Method: FIG. 1 Prevention of fibrosis progression by proline-containing cyclic and amidated linear peptides. Mice were injected for 6 weeks with CCl4 in order to induce liver fibrosis. Starting on day 32 the mice received daily intraperitoneal injections of 25 mg/kg/mouse/day of the peptides in 0.9% NaCl for a total of 10 days. CCl4-treated mice also received NaCl 0.9%. The healthy control group (CT) only received 0.9% NaCl. N=4/10/[…]/8/11/7 in two experiments. The following peptides were tested on CCl4-treated mice: cyclic Pro-Gly-Leu-Gln-Gly-Glu (Cyclic PGLQGE; SEQ ID NO: 6), and compared to two controls: cyclic Pro-Gly-Leu-Asn-Gly-Glu (Cyclic CT1+P: cyclic PGLNGE; SEQ ID NO: 11) and cyclic Pro-Gly-Leu-Hyp-Gly-Glu (Cyclic CT2+P: cyclic PGLOGE; SEQ ID NO: 16). Linear Gly-Leu-Gln-Gly-Glu-NH2 (Linear GLQGE-NH2; SEQ ID NO: 4) was also tested and compared to two controls: linear Gly-Leu-Asn-Gly-Glu-NH2 (Linear CT1—NH2: linear GLNGE-NH2; SEQ ID NO: 9) and linear Gly-Leu-Hyp-Gly-Glu-NH2 (Linear CT2—NH2: linear GLOGE-NH2; SEQ ID NO: 14). * p<0.05. Evaluated by t-test. Data presented as mean+SEM.
FIG. 2 Prevention of fibrosis progression by cyclic peptides and acetylated linear peptides. Mice were injected for 6 weeks with CCl4 in order to induce liver fibrosis. Starting on day 32 the mice received daily intraperitoneal injections of 25 mg/kg/mouse/day of the peptides in 0.9% NaCl for a total of 10 days. CCl4-treated mice also received NaCl 0.9%. The healthy control group (CT) only received 0.9% NaCl. N=5/18/9/9/6/5/4/4 in two experiments. The following peptides were tested on CCl4-treated mice: cyclic Gly-Leu-Gln-Gly-Glu (Cyclic GLQGE; SEQ ID NO: 5), and compared to two controls: cyclic Gly-Leu-Asn-Gly-Glu (Cyclic CT1: cyclic GLNGE; SEQ ID NO: 10) and cyclic Gly-Leu-Hyp-Gly-Glu (Cyclic CT2: cyclic GLOGE; SEQ ID NO: 15). Linear Ac-Gly-Leu-Gln-Gly-Glu (Linear Ac-GLQGE; SEQ ID NO: 3) was also tested and compared to two controls: linear Ac-Gly-Leu-Asn-Gly-Glu (Linear Ac-CT1: linear Ac-GLNGE; SEQ ID NO: 8) and linear Ac-Gly-Leu-Hyp-Gly-Glu (Linear Ac-CT2: linear Ac-GLOGE; SEQ ID NO: 13). * p<0.05, ** p<0.005. Evaluated by t-test. Data presented as mean+SEM.
Mice were injected for 6 weeks with CCl4 in order to induce liver fibrosis. Starting on day 32 the mice received daily intraperitoneal injections of the peptides at a final dose of 25 mg/kg/mouse/day diluted in NaCl 0.9% for a total of 10 days. In these experiments, the following peptides were tested: cyclic peptide Pro-Gly-Leu-Gln-Gly-Glu (SEQ ID NO: 6), cyclic peptide Pro-Gly-Leu-Asn-Gly-Glu (SEQ ID NO: 11), cyclic peptide Pro-Gly-Leu-Hyp-Gly-Glu (SEQ ID NO: 16), linear peptide Gly-Leu-Gln-Gly-Glu-NH2 (SEQ ID NO: 4), linear peptide Gly-Leu-Asn-Gly-Glu-NH2 (SEQ ID NO: 9), linear peptide Gly-Leu-Hyp-Gly-Glu-NH2 (SEQ ID NO: 14).
Mice were injected for 6 weeks with CCl4 in order to induce liver fibrosis. Starting on day 32 the mice received daily intraperitoneal injections of the peptides at a final dose of 25 mg/kg/mouse/day diluted in NaCl 0.9% for a total of 10 days. In these experiments, the following peptides were tested: cyclic peptide Gly-Leu-Gln-Gly-Glu (SEQ ID NO: 5), cyclic peptide Gly-Leu-Asn-Gly-Glu (SEQ ID NO: 10), cyclic peptide Gly-Leu-Hyp-Gly-Glu (SEQ ID NO: 15), linear peptide Ac-Gly-Leu-Gln-Gly-Glu (SEQ ID NO: 3), linear peptide Ac-Gly-Leu-Asn-Gly-Glu (SEQ ID NO: 8), linear peptide Ac-Gly-Leu-Hyp-Gly-Glu (SEQ ID NO: 13).

[5] = tested on: TGFβ expression in murine hepatocytes; test: unstimulated TGFβ expression in murine hepatocytes; type: cell-based; conditions: data not shown

For `CC(C)C[C@@H]1NC(=O)CNC(=O)[C@H](CCC(=O)O)NC(=O)CNC(=O)[C@H](CCC(N)=O)NC1=O` [SEQ ID NO: 5 (HCl salt), Gly-Leu-Gln-Gly-Glu] (HELM PEPTIDE1{E.G.L.Q.G}$PEPTIDE1,PEPTIDE1,1:R1-5:R2$$$V2.0), the “diminution of cancer size (tumor weight) as compared to control mice” value [1] was “approximately 72%” and the “size of the tumor by bioluminescence imaging” value [2] was “significantly (p<0.05) diminished”.

With `CC(C)C[C@@H]1NC(=O)CNC(=O)[C@H](CCC(=O)O)NC(=O)CNC(=O)[C@H](CCC(N)=O)NC1=O` [SEQ ID NO: 5 (acetate salt), Gly-Leu-Gln-Gly-Glu] (HELM PEPTIDE1{E.G.L.Q.G}$PEPTIDE1,PEPTIDE1,1:R1-5:R2$$$V2.0) the “total amount of collagen in the lung” value [3] was “significantly diminished”.

For `CC(C)C[C@@H]1NC(=O)CNC(=O)[C@H](CCC(=O)O)NC(=O)CNC(=O)[C@H](CC(N)=O)NC1=O` [SEQ ID NO: 10, Gly-Leu-Asn-Gly-Glu, reference compound] (HELM PEPTIDE1{E.G.L.N.G}$PEPTIDE1,PEPTIDE1,1:R1-5:R2$$$V2.0), the “collagen accumulation in the liver (marker of matrix accumulation)” value (“collagen accumulation in the liver” below) [4] was “failed to inhibit collagen accumulation”.

`CC(C)C[C@H](NC(=O)CN)C(=O)N1C[C@@H](O)C[C@H]1C(=O)NCC(=O)N[C@@H](CCC(=O)O)C(N)=O` [SEQ ID NO: 14, Gly-Leu-Hyp-Gly-Glu-NH2] was tested, and the “unstimulated TGFβ expression” value [5] was “had no effect”.

With `CC(C)C[C@@H]1NC(=O)CNC(=O)[C@H](CCC(=O)O)NC(=O)CNC(=O)[C@@H]2C[C@@H](O)CN2C1=O` [SEQ ID NO: 15, Gly-Leu-Hyp-Gly-Glu, reference compound] (HELM PEPTIDE1{E.G.L.[Hyp].G}$PEPTIDE1,PEPTIDE1,1:R1-5:R2$$$V2.0) the “collagen accumulation in the liver” value [4] was “failed to inhibit collagen accumulation”.

In the case of “Ac-GLQGE [SEQ ID NO: 3, Ac-Gly-Leu-Gln-Gly-Glu]”, the “collagen accumulation in the liver” value [4] is reported as “able to significantly reduce CCl4-induced collagen accumulation”.

For “GLNGE-NH2 [SEQ ID NO: 9, Gly-Leu-Asn-Gly-Glu-NH2]”, the “unstimulated TGFβ expression” value [5] was “had no effect”.

With “GLQGE-NH2 [SEQ ID NO: 4, Gly-Leu-Gln-Gly-Glu-NH2]” the “collagen accumulation in the liver” value [4] was “able to significantly reduce CCl4-induced collagen accumulation” and the “unstimulated TGFβ expression” value [5] was “efficiently inhibits”.

With “Gly-Leu-Gln-Gly-Glu (GLQGE; SITE 1..5 peptide bond between the amino-terminus and the carboxyl-terminus; listed as Homo sapiens) [SEQ ID NO: 5]” the “efficiency in reducing collagen accumulation in comparison to the cyclic peptide with proline Pro-Gly-Leu-Gln-Gly-Glu (SEQ ID NO: 6)” value ([4]; CCl4 liver fibrosis in mice, comparison of Y-axis values of FIGS. 1 and 2, p<0.001) was “more efficient in reducing collagen accumulation”, the “inhibitory effect on collagen accumulation compared to linear Gly-Leu-Gln-Gly-Glu-NH2 (SEQ ID NO: 4) or Ac-Gly-Leu-Gln-Gly-Glu (SEQ ID NO: 3)” value ([4]; chemically induced chronic liver damage in mice) was “larger inhibitory effect” and the “collagen accumulation in the liver” value [4] was “able to significantly reduce collagen accumulation”.

PGLQGE [SEQ ID NO: 6] was tested, and the “collagen accumulation in the liver” value [4] was “able to significantly reduce collagen accumulation”.

— patent US12454551B2, “Peptides as inhibitors of fibrotic matrix accumulation” (Max-Planck-Gesellschaft zur Förderung der Wissenschaften …, priority 2019, dated 2025)
